From ChEMBL document CHEMBL1201862, “PubChem BioAssay data set” (2004) come the findings set out here.

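These data come from cells grown in 96-well plates and exposed to compound for 48 hours at five concentrations. GI50 is the concentration that inhibits growth by half.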 Calls of active or inactive are those of the source. Cut-off read from the data, not from the text of the source: active = GI50 up to about 1.1 µM and inactive = higher. Where only a bound is given, the exact number is not on record here.

Holding throughout (assay): NCI-60 cell line screen, 48 h
Experiment [1] deals with NCI-H460.
Experiment [2] relates to NCI-H226.
For experiment [3], the system named is MDA-N.
Experiment [4] deals with SNB-75.
The test system of experiment [5] is UACC-62.
Experiment [6] deals with Hs-578T.
Experiment [7] has as its system OVCAR-8.
Experiment [8] relates to OVCAR-5.
Experiment [9] has as its system SK-MEL-5.
In experiment [10] the test system is LOX IMVI.
Experiment [11] has as its system RPMI-8226.
The test system of experiment [12] is HCC 2998.
The subject of experiment [13] is 786-0.
Experiment [14] concerns TK-10.
Experiment [15] relates to UACC-257.
Experiment [16] deals with SF-539.
The test system of experiment [17] is SF-268.
Experiment [18] concerns SNB-19.
Experiment [19] relates to SK-OV-3.
The subject of experiment [20] is MDA-MB-231.

With `O=c1[nH]nc(-c2cccc(Br)c2)[nH]1`, the GI50 is > 100 µM (inactive) in experiment [1]; > 100 µM (inactive) in experiment [2]; > 100 µM (inactive) in experiment [3]; 43.3 µM (inactive) in experiment [4]; > 100 µM (inactive) in experiment [5]; 18.2 µM (inactive) in experiment [6]. Further, the GI50 in experiment [7], in [8], in experiment [9], in experiment [10], in experiment [11] and in experiment [12] was > 100 µM (inactive) each time. Further, the GI50 in experiment [13], in experiment [14], in [15], in experiment [16], in experiment [17] and in experiment [18] was > 100 µM (inactive) in each case.

Consider `O=C(Nc1ccc(Cl)cc1)Oc1ccc(C(=S)Nc2ccc(Br)cc2)cc1`, for which the GI50 was 4.85 µM (inactive) in experiment [1]; 16.7 µM (inactive) in experiment [3]; 1.63 µM (inactive) in experiment [5]; 57.1 µM (inactive) in [6]; 6.01 µM (inactive) in experiment [7]; 4.05 µM (inactive) in experiment [8]. In addition, the GI50 was 6.1 µM (inactive) in experiment [9]; 26.5 µM (inactive) in experiment [19]; 0.334 µM (active) in experiment [10]; 23.5 µM (inactive) in experiment [11]; 15.4 µM (inactive) in experiment [12]; 16 µM (inactive) in experiment [13]. Also, the GI50 was 15.5 µM (inactive) in [15], 15.5 µM (inactive) in experiment [16], 30.5 µM (inactive) in experiment [17] and 34.4 µM (inactive) in [18].

For the compound `O=C(NC(CS)C(=O)O)c1c2ccccc2nc2ccccc12` (stereo not given), the GI50 in experiment [1] was 23.6 µM (inactive); in experiment [2], < 0.01 µM (active); in [3], 14.5 µM (inactive); in [4], 83.8 µM (inactive); in experiment [5], 48.8 µM (inactive); in experiment [7], 49.1 µM (inactive). Further, the GI50 in [8] was > 100 µM (inactive); in experiment [20], 76.6 µM (inactive); in experiment [9], 3.28 µM (inactive); in experiment [19] it was 95.3 µM (inactive); in [10] it was 21.5 µM (inactive); in experiment [11], 54.1 µM (inactive). Further, the GI50 in experiment [12] was 83.9 µM (inactive); in experiment [13] it was > 100 µM (inactive); in [14], > 100 µM (inactive); in [15], 13.7 µM (inactive); in experiment [16], > 100 µM (inactive); in experiment [17], > 100 µM (inactive). Also, the GI50 in [18] is 23.7 µM (inactive).

As for `Cn1cnc([N+](=O)[O-])c1Sc1nncc2[nH]cnc12`, the GI50 in experiment [2], in [3], in experiment [4], in experiment [5], in experiment [7] and in experiment [8] was > 100 µM (inactive) throughout. The GI50 in experiment [20], in [9], in experiment [19], in [10], in experiment [11] and in experiment [12] was > 100 µM (inactive) each time. Further, the GI50 in [13] was > 100 µM (inactive); in experiment [14] it was > 100 µM (inactive); in experiment [15], > 100 µM (inactive); in [16] it was > 100 µM (inactive); in experiment [18] it was 7.82 µM (inactive).
